The subject of the assay is peripheral blood mononuclear cells. The assay can be described thus: T-cell promiscuity in unimmunized humans: PBMC proliferation with lipopeptide (3H-thymidine incorporation). The format is cell-based, human. As to conditions: PBMC 3×10^5/well, 5-6 days with lipopeptide, responder = ≧2 S.I. (cpm with antigen/cpm media only). In general terms: Dividing cells build labelled thymidine or BrdU into new DNA.

On to Tetanus toxoid, for which the Responder/Total is reported as 10/21.

The record behind these values is patent publication US20020018806A1, “Lipopeptide adjuvants” (priority 2000, published 2002).
